Data on twelve compounds can be found in PubChem BioAssay (NCI).

Among the test systems are ACHN renal; HCT-15 colon; HS 578T breast; LOX IMVI melanoma; MDA-MB-231 breast; MDA-MB-435; MDA-N; NCI-H460 lung; TK-10 renal; UO-31 renal.
Common to all, as to assay: NCI tumour cell line growth inhibition, 48 h

Each structure is given as a SMILES string.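 Protocol summary: plate cells (96-well), add compound at 5 concentrations, incubate 48 h, interpolate endpoints linearly. TGI is the concentration that stops growth completely.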 Where a SMILES comes first, the peptide text is derived from it. [ ]: non-standard residue; d: D form. The star is where a group is joined. ξ: configuration not given here. Propanoyl(3-(4-MeO-Ph)) = COc1ccc(CCC(=O)*)cc1; Thr(3ξ) = CC(O)[C@H](N)C(=O)O; dNMeL = CN[C@H](CC(C)C)C(=O)O; ξLac = CC(O)C(=O)O

In the case of `O=c1oc2c/c(=C\c3ccccc3)c(=O)c3cccc1c3-2`, the TGI was greater than 100 µM with ACHN renal; greater than 100 µM in the experiment on HCT-15 colon; 73.2 µM in the experiment with HS 578T breast; 40.7 µM in the experiment on LOX IMVI melanoma; 69.2 µM with MDA-MB-231 breast; 51.7 µM with MDA-MB-435. The TGI in the experiment with MDA-N is 46.1 µM; in the experiment on NCI-H460 lung it was greater than 100 µM; in the experiment on TK-10 renal, greater than 100 µM; in the experiment with UO-31 renal it was 85.5 µM.
On to `Cn1c(N=[N+]=[N-])cc(=O)n(C)c1=O`, for which the TGI in the experiment with ACHN renal, in the experiment with HCT-15 colon, in the experiment on HS 578T breast, with LOX IMVI melanoma, with MDA-MB-231 breast and in the experiment on MDA-MB-435 was greater than 100 µM each time. In addition, the TGI in the experiment with MDA-N, in the experiment on NCI-H460 lung, with TK-10 renal and in the experiment with UO-31 renal was greater than 100 µM in each case.
Turning to `CCOC(=O)C1C[C@H]2CO[C@H](c3ccccc3)N2C1=O` (stereo not given in full), the TGI in the experiment on ACHN renal, with HCT-15 colon, in the experiment on HS 578T breast, in the experiment on LOX IMVI melanoma, in the experiment with MDA-MB-231 breast and in the experiment on MDA-MB-435 was greater than 100 µM throughout. Besides, the TGI in the experiment on MDA-N, in the experiment on NCI-H460 lung, with TK-10 renal and in the experiment with UO-31 renal was greater than 100 µM throughout.
Regarding `CN(C)CCNC(=O)c1cccc2[nH]c(-c3ccncc3)nc12`, the TGI in the experiment on ACHN renal came out at 28.4 µM; in the experiment on HCT-15 colon, 10.4 µM; in the experiment on HS 578T breast, 29.6 µM; in the experiment on LOX IMVI melanoma, 1.81 µM; in the experiment on MDA-MB-231 breast, 9.74 µM; in the experiment on MDA-MB-435, 3.63 µM. Besides, the TGI was 3.27 µM with MDA-N, 8.22 µM with NCI-H460 lung, 16.9 µM in the experiment on TK-10 renal and 6.76 µM in the experiment on UO-31 renal.
As for `O=C(CCc1ccc(O)c(O)c1)NCCc1ccc(O)c(O)c1`, the TGI in the experiment with ACHN renal is greater than 100 µM; with HCT-15 colon it was greater than 100 µM; in the experiment on HS 578T breast, greater than 100 µM; in the experiment with LOX IMVI melanoma, greater than 100 µM; in the experiment with MDA-MB-231 breast, 73.9 µM; with MDA-MB-435 it was 31.8 µM. For the same compound, the TGI in the experiment on MDA-N was 33.9 µM; with NCI-H460 lung, greater than 100 µM; in the experiment on TK-10 renal it was greater than 100 µM; in the experiment on UO-31 renal, greater than 100 µM.
As for `COc1ccc(-c2nnc(CCCCCCCCc3nnc(-c4ccc(OC)cc4)n3N)n2N)cc1`, the TGI with ACHN renal, with HCT-15 colon, with HS 578T breast, in the experiment with LOX IMVI melanoma, with MDA-MB-231 breast and in the experiment on MDA-MB-435 was greater than 100 µM throughout. Also, the TGI in the experiment with MDA-N, in the experiment with NCI-H460 lung, in the experiment with TK-10 renal and in the experiment with UO-31 renal was greater than 100 µM each time.
Consider `COC(=O)C(Cc1ccccc1)NC(=O)c1ccc(CNC(=S)NCc2cccc(CNC(=S)NCc3ccccc3)c2)cc1` (stereo not given), for which the TGI in the experiment on ACHN renal, in the experiment with HCT-15 colon, with HS 578T breast, with LOX IMVI melanoma, in the experiment on MDA-MB-231 breast and in the experiment with MDA-MB-435 was greater than 62.5 µM in each case. In addition, the TGI in the experiment with MDA-N, in the experiment on NCI-H460 lung, with TK-10 renal and in the experiment on UO-31 renal was greater than 62.5 µM each time.
Turning to `CCOc1cc2c(cc1O)CC[C@@H]1[C@@H]2CC[C@]2(C)C(OS(=O)OC3CC[C@@H]4[C@H]5CCc6cc(O)c(OCC)cc6[C@@H]5CC[C@@]34C)CC[C@@H]12` (stereo not given in full), the TGI with ACHN renal is greater than 81.7 µM; in the experiment with HCT-15 colon, 15.3 µM; in the experiment with HS 578T breast it was greater than 57.3 µM; in the experiment with LOX IMVI melanoma, greater than 51.7 µM; with MDA-MB-231 breast, 29.8 µM; in the experiment with MDA-MB-435, 0.548 µM. The TGI is 0.544 µM in the experiment on MDA-N, greater than 34.2 µM in the experiment with NCI-H460 lung, greater than 100 µM in the experiment on TK-10 renal and 27.4 µM with UO-31 renal.
Regarding `COc1ccc(/C=N\NC(=O)Nc2cccc3ccccc23)cc1`, the TGI with ACHN renal is 66.6 µM; in the experiment with HCT-15 colon, greater than 100 µM; in the experiment with HS 578T breast it was 61.2 µM; with LOX IMVI melanoma, greater than 100 µM; with MDA-MB-231 breast it was 44.4 µM; in the experiment on MDA-MB-435, greater than 100 µM. Moreover, the TGI was greater than 100 µM in the experiment on MDA-N, 40.2 µM in the experiment on NCI-H460 lung, 43.9 µM with TK-10 renal and greater than 100 µM with UO-31 renal.
On to `S=c1nc2sc3c(c2c(Nc2ccc(Br)cc2)[nH]1)CCN(N1CCc2c(sc4nc(=S)[nH]c(Nc5ccc(Br)cc5)c24)C1)C3`, for which the TGI is greater than 50 µM in the experiment with ACHN renal; greater than 50 µM in the experiment with HCT-15 colon; greater than 50 µM in the experiment with HS 578T breast; 24.9 µM with LOX IMVI melanoma; greater than 50 µM in the experiment with MDA-MB-231 breast; greater than 50 µM in the experiment with MDA-MB-435. Besides, the TGI was 44.2 µM in the experiment with MDA-N, greater than 50 µM in the experiment with NCI-H460 lung, greater than 50 µM with TK-10 renal and greater than 50 µM with UO-31 renal.
With `Cc1[nH]c(=O)nc2nc3ccc(Cl)cc3c(NC(C)(CO)CO)c12`, the TGI with ACHN renal is greater than 100 µM; in the experiment on HCT-15 colon, greater than 100 µM; in the experiment with HS 578T breast, greater than 100 µM; in the experiment on LOX IMVI melanoma, greater than 100 µM; with MDA-MB-231 breast, greater than 81 µM; in the experiment on MDA-MB-435, greater than 100 µM. The TGI was greater than 100 µM with MDA-N, greater than 100 µM with NCI-H460 lung, greater than 100 µM in the experiment on TK-10 renal and 10.4 µM in the experiment with UO-31 renal.
As for `COC(=O)[C@@H](NC(=O)[C@@H](CC(C)C)N(C)C(=O)[C@@H]1CCCN1C(=O)C(C)O)C(C)OC(=O)CCc1ccc(OC)cc1` (stereo not given in full) (H-[ξLac]P[dNMeL][Thr(3ξ)](Propanoyl(3-(4-MeO-Ph)))-OMe), the TGI in the experiment on ACHN renal, in the experiment on HCT-15 colon, in the experiment on HS 578T breast, in the experiment with LOX IMVI melanoma, in the experiment with MDA-MB-231 breast and in the experiment with MDA-MB-435 was greater than 100 µM each time. Besides, the TGI in the experiment with MDA-N, with NCI-H460 lung, with TK-10 renal and with UO-31 renal was greater than 100 µM throughout.
